Test results published in US6358885B1, “Substituted phenylheterocyclic herbicides” (Mississippi State University, priority 1992, dated 2002).

Key:
chickweed = test: Test B preemergence/postemergence greenhouse plant response rating 0 to 10; type: in vivo, Stellaria media; details: 0 to 10 scale
Summary of the method: (§1)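 Test chemicals, dissolved in a non-phytotoxic solvent, were applied to soil at planting and, at the same time, over foliage of seedlings at the one to four leaf stage.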

corn [1] = test: as above; type: in vivo, Zea mays; details: for Plant response rating, Corn: 0 to 10 scale
Summary of the method: as §1

morningglory [2] = test: as above; type: in vivo, Ipomoea hederacea; details: 0 to 10 scale
Summary of the method: as §1

soybean = test: as above; type: in vivo, Glycine max; details: 0 to 10 scale
Summary of the method: as §1

sugar beet = test: as above; type: in vivo, Beta vulgaris; details: 0 to 10 scale
Summary of the method: as §1

velvetleaf [3] = test: as above; type: in vivo, Abutilon theophrasti; details: 0 to 10 scale
Summary of the method: as §1

corn [4] = test: Test C preemergence/postemergence greenhouse plant response rating 0 to 100; type: in vivo, Zea mays; details: POSTEMERGENCE; for Plant response rating, Corn: 62 g/ha, 0 to 100 scale
Summary of the method: (§2)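 Compounds in non-phytotoxic solvent applied preemergence to sandy loam one day after planting, postemergence at the 1–4 leaf stage, or to ~2.5 cm floodwater over silt loam.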

crabgrass = test: as above; type: in vivo, Digitaria sanguinalis; details: POSTEMERGENCE; for Plant response rating, Crabgrass: 62 g/ha, 0 to 100 scale
Summary of the method: as §2

lambsquarters = test: as above; type: in vivo, Chenopodium album; details: POSTEMERGENCE; for Plant response rating Lambsquarters: 62 g/ha, 0 to 100 scale
Summary of the method: as §2

morningglory [5] = test: as above; type: in vivo, Ipomoea hederacea; details: POSTEMERGENCE; for Plant response rating, Morningglory: 62 g/ha, 0 to 100 scale
Summary of the method: as §2

velvetleaf [6] = test: as above; type: in vivo, Abutilon theophrasti; details: POSTEMERGENCE; for Plant response rating, Velvetleaf: 62 g/ha, 0 to 100 scale
Summary of the method: as §2

wheat = test: as above; type: in vivo, Triticum aestivum; details: POSTEMERGENCE; for Plant response rating, Wheat: 62 g/ha, 0 to 100 scale
Summary of the method: as §2

bermudagrass = test: Test G preemergence/postemergence greenhouse plant response rating 0 to 100; type: in vivo, Cynodon dactylon; details: 0 to 100 scale
Description: (§3) Seeds, rhizomes, or plant parts of alfalfa (Medicago ativa), annual bluegrass (Poa annua), bermudagrass (Cynodon dactylon), broadleaf signalgrass (Brachiaria plantaginea), common purslane (Portulaca oleracea), common ragweed (Ambrosia elatior), […] (Paspalum dilatatum), goosegrass (Eleusine indica), guineagrass (Panicum maximum), […] exaltata), johnsongrass (Sorghum halepense), large crabgrass (Digitaria sanguinalis), peanut (Arachis hypoagaea), pitted morningglory (Ipomoea lacunosa), purple nutsedge (Cyperus rotundus), sandbur (Cenchrus echinatus), smooth crabgrass (Digitaria ischaemum) and yellow nutsedge (Cyperus esculentus) were planted into greenhouse pots containing greenhouse planting medium. Each pot contained only one plant species. The test compound was dissolved in a non-phytotoxic solvent and applied preemergence and/or postemergence to the plants. Preemergence applications were made within one day of planting the seeds or plant parts. Postemergence applications were applied when the plants were in the two to four leaf stage (three to twenty cm). Test chemicals were dissolved in a non-phytotoxic solvent and applied preemergence and postemergence to the plants. Untreated control plants and treated plants were placed in the greenhouse and visually evaluated for injury at 13 to 21 days after herbicide application. […] A dash (-) response indicates no test result.

large crabgrass = test: as above; type: in vivo, Digitaria sanguinalis; details: 0 to 100 scale
Description: as §3

Structure (SMILES): C=CCN1C(=O)COc2cc(F)c(-c3nn4c(c3Cl)CCCC4)cc21 [Compound 33]
- Plant response rating, Chickweed (chickweed; POSTEMERGENCE, Rate 10 g/ha): 10
- Plant response rating, Chickweed (chickweed; POSTEMERGENCE, Rate 50 g/ha): 10
- Plant response rating, Corn (corn [1]; POSTEMERGENCE, Rate 10 g/ha): 3
- Plant response rating, Corn (corn [1]; POSTEMERGENCE, Rate 50 g/ha): 4
- Plant response rating, Corn (corn [1]; PREEMERGENCE, Rate 50 g/ha): 0
- Plant response rating, Morningglory (morningglory [2]; POSTEMERGENCE, Rate 10 g/ha): 9
- Plant response rating, Morningglory (morningglory [2]; POSTEMERGENCE, Rate 50 g/ha): 10
- Plant response rating, Morningglory (morningglory [2]; PREEMERGENCE, Rate 50 g/ha): 10
- Plant response rating, Soybean (soybean; POSTEMERGENCE, Rate 10 g/ha): 8
- Plant response rating, Soybean (soybean; POSTEMERGENCE, Rate 50 g/ha): 9
- Plant response rating, Soybean (soybean; PREEMERGENCE, Rate 50 g/ha): 2
- Plant response rating, Sugar beet (sugar beet; POSTEMERGENCE, Rate 10 g/ha): 10
- Plant response rating, Sugar beet (sugar beet; POSTEMERGENCE, Rate 50 g/ha): 10
- Plant response rating, Sugar beet (sugar beet; PREEMERGENCE, Rate 50 g/ha): 10
- Plant response rating, Velvetleaf (velvetleaf [3]; POSTEMERGENCE, Rate 10 g/ha): 10
- Plant response rating, Velvetleaf (velvetleaf [3]; POSTEMERGENCE, Rate 50 g/ha): 9
- Plant response rating, Velvetleaf (velvetleaf [3]; PREEMERGENCE, Rate 50 g/ha): 9
- Plant response rating, Corn (corn [4]): 40
- Plant response rating (0 to 100), Corn (corn [4]; Rate 1 g/ha): 20
- Plant response rating (0 to 100), Corn (corn [4]; Rate 4 g/ha): 30
- Plant response rating (0 to 100), Corn (corn [4]; Rate 16 g/ha): 30
- Plant response rating, Crabgrass (crabgrass): 20
- Plant response rating (0 to 100), Crabgrass (crabgrass; Rate 1 g/ha): 0
- Plant response rating (0 to 100), Crabgrass (crabgrass; Rate 4 g/ha): 0
- Plant response rating (0 to 100), Crabgrass (crabgrass; Rate 16 g/ha): 0
- Plant response rating Lambsquarters (lambsquarters): 100
- Plant response rating (0 to 100), Lambsquarters (lambsquarters; Rate 1 g/ha): 50
- Plant response rating (0 to 100), Lambsquarters (lambsquarters; Rate 4 g/ha): 70
- Plant response rating (0 to 100), Lambsquarters (lambsquarters; Rate 16 g/ha): 80
- Plant response rating, Morningglory (morningglory [5]): 100
- Plant response rating (0 to 100), Morningglory (morningglory [5]; Rate 1 g/ha): 50
- Plant response rating (0 to 100), Morningglory (morningglory [5]; Rate 4 g/ha): 70
- Plant response rating (0 to 100), Morningglory (morningglory [5]; Rate 16 g/ha): 90
- Plant response rating, Velvetleaf (velvetleaf [6]): 100
- Plant response rating (0 to 100), Velvetleaf (velvetleaf [6]; Rate 1 g/ha): 70
- Plant response rating (0 to 100), Velvetleaf (velvetleaf [6]; Rate 4 g/ha): 100
- Plant response rating (0 to 100), Velvetleaf (velvetleaf [6]; Rate 16 g/ha): 100
- Plant response rating, Wheat (wheat): 60
- Plant response rating (0 to 100), Wheat (wheat; Rate 1 g/ha): 30
- Plant response rating (0 to 100), Wheat (wheat; Rate 4 g/ha): 40
- Plant response rating (0 to 100), Wheat (wheat; Rate 16 g/ha): 50
- Plant response rating, Bermudagrass (bermudagrass; POSTEMERGENCE, Rate 125 g/ha): 0
- Plant response rating, Bermudagrass (bermudagrass; POSTEMERGENCE, Rate 250 g/ha): 0
- Plant response rating, Bermudagrass (bermudagrass; PREEMERGENCE, Rate 125 g/ha): 0
- Plant response rating, Bermudagrass (bermudagrass; PREEMERGENCE, Rate 250 g/ha): 0
- Plant response rating, Large Crabgrass (large crabgrass; POSTEMERGENCE, Rate 125 g/ha): 0
- Plant response rating, Large Crabgrass (large crabgrass; POSTEMERGENCE, Rate 250 g/ha): 0
- Plant response rating, Large Crabgrass (large crabgrass; PREEMERGENCE, Rate 125 g/ha): 0
- Plant response rating, Large Crabgrass (large crabgrass; PREEMERGENCE, Rate 250 g/ha): 0

Structure (SMILES): CCCN1C(=O)COc2cc(F)c(-c3nn4c(c3Cl)CCCC4)cc21 [Compound 32]
- Plant response rating, Chickweed (chickweed; POSTEMERGENCE, Rate 10 g/ha): 10
- Plant response rating, Chickweed (chickweed; PREEMERGENCE, Rate 10 g/ha): 0
- Plant response rating, Corn (corn [1]; POSTEMERGENCE, Rate 10 g/ha): 3
- Plant response rating (0 to 10 scale), Corn (corn [1]; POSTEMERGENCE, Rate 50 g/ha): 4
- Plant response rating, Corn (corn [1]; PREEMERGENCE, Rate 50 g/ha): 0
- Plant response rating, Morningglory (morningglory [2]; POSTEMERGENCE, Rate 10 g/ha): 10
- Plant response rating, Morningglory (morningglory [2]; POSTEMERGENCE, Rate 50 g/ha): 10
- Plant response rating, Morningglory (morningglory [2]; PREEMERGENCE, Rate 50 g/ha): 2
- Plant response rating, Soybean (soybean; POSTEMERGENCE, Rate 10 g/ha): 7
- Plant response rating, Soybean (soybean; POSTEMERGENCE, Rate 50 g/ha): 8
- Plant response rating, Soybean (soybean; PREEMERGENCE, Rate 50 g/ha): 0
- Plant response rating, Sugar beet (sugar beet; POSTEMERGENCE, Rate 10 g/ha): 10
- Plant response rating, Sugar beet (sugar beet; POSTEMERGENCE, Rate 50 g/ha): 10
- Plant response rating, Sugar beet (sugar beet; PREEMERGENCE, Rate 50 g/ha): 7
- Plant response rating, Velvetleaf (velvetleaf [3]; POSTEMERGENCE, Rate 10 g/ha): 10
- Plant response rating, Velvetleaf (velvetleaf [3]; POSTEMERGENCE, Rate 50 g/ha): 10
- Plant response rating, Velvetleaf (velvetleaf [3]; PREEMERGENCE, Rate 50 g/ha): 10
- Plant response rating, Corn (corn [4]): 50
- Plant response rating (0 to 100), Corn (corn [4]; Rate 1 g/ha): 20
- Plant response rating (0 to 100), Corn (corn [4]; Rate 4 g/ha): 30
- Plant response rating (0 to 100), Corn (corn [4]; Rate 16 g/ha): 40
- Plant response rating, Crabgrass (crabgrass): 40
- Plant response rating (0 to 100), Crabgrass (crabgrass; Rate 1 g/ha): 10
- Plant response rating (0 to 100), Crabgrass (crabgrass; Rate 4 g/ha): 20
- Plant response rating (0 to 100), Crabgrass (crabgrass; Rate 16 g/ha): 30
- Plant response rating Lambsquarters (lambsquarters): 100
- Plant response rating (0 to 100), Lambsquarters (lambsquarters; Rate 1 g/ha): 70
- Plant response rating (0 to 100), Lambsquarters (lambsquarters; Rate 4 g/ha): 80
- Plant response rating (0 to 100), Lambsquarters (lambsquarters; Rate 16 g/ha): 100
- Plant response rating, Morningglory (morningglory [5]): 100
- Plant response rating (0 to 100), Morningglory (morningglory [5]; Rate 1 g/ha): 50
- Plant response rating (0 to 100), Morningglory (morningglory [5]; Rate 4 g/ha): 70
- Plant response rating (0 to 100), Morningglory (morningglory [5]; Rate 16 g/ha): 100
- Plant response rating, Velvetleaf (velvetleaf [6]): 100
- Plant response rating (0 to 100), Velvetleaf (velvetleaf [6]; Rate 1 g/ha): 100
- Plant response rating (0 to 100), Velvetleaf (velvetleaf [6]; Rate 16 g/ha): 100
- Plant response rating, Wheat (wheat): 50
- Plant response rating (0 to 100), Wheat (wheat; Rate 1 g/ha): 10
- Plant response rating (0 to 100), Wheat (wheat; Rate 4 g/ha): 30
- Plant response rating (0 to 100), Wheat (wheat; Rate 16 g/ha): 30
- Plant response rating, Bermudagrass (bermudagrass; POSTEMERGENCE, Rate 125 g/ha): 0
- Plant response rating, Bermudagrass (bermudagrass; POSTEMERGENCE, Rate 250 g/ha): 0
- Plant response rating, Bermudagrass (bermudagrass; PREEMERGENCE, Rate 125 g/ha): 0
- Plant response rating, Bermudagrass (bermudagrass; PREEMERGENCE, Rate 250 g/ha): 0
- Plant response rating, Large Crabgrass (large crabgrass; POSTEMERGENCE, Rate 125 g/ha): 0
- Plant response rating, Large Crabgrass (large crabgrass; POSTEMERGENCE, Rate 250 g/ha): 0
- Plant response rating, Large Crabgrass (large crabgrass; PREEMERGENCE, Rate 125 g/ha): 0
- Plant response rating, Large Crabgrass (large crabgrass; PREEMERGENCE, Rate 250 g/ha): 0
